Laboratory results from USRE39591E1, “6-O-substituted ketolides having antibacterial activity” (Abbott Laboratories, priority 1996, dated 2007).

Tested on: up to 32 different microorganisms
Experiment: in vitro antibacterial activity (MIC), agar dilution on Brain Heart Infusion (BHI) agar with Steers replicator
Format: cell-based
Settings: unit assumed
Method: Representative compounds of the present invention were assayed in vitro for antibacterial activity as follows: Twelve petri dishes containing successive aqueous dilutions of the test compound mixed with 10 mL of sterilized Brain Heart Infusion (BHI) agar (Difco 0148-01-5) were prepared. Each plate was inoculated with 1:100 (or 1:10 for slow-growing strains, such as Micrococcus and Streptococcus) dilutions of up to 32 different microorganisms, using a Steers replicator block. The inoculated plates were incubated at 35°-37° C. for 20 to 24 hours. In addition, a control plate, using BHI agar containing no test compound, was prepared and incubated at the beginning and end of each test.
An additional plate containing a compound having known susceptibility patterns for the organisms being tested and belonging to the same antibiotic class as the test compound was also prepared and incubated as a further control, as well as to provide test-to-test comparability. Erythromycin A was used for this purpose.
After incubation, each plate was visually inspected. The minimum inhibitory concentration (MIC) was defined as the lowest concentration of drug yielding no growth, a slight haze, or sparsely isolated colonies on the inoculum spot as compared to the growth control.

[1] = Candida albicans CCH 442 (code TT)
[2] = Enterococcus faecism ATCC 8043 (code II)
[3] = Escherichia coli DC-2 (code SS)
[4] = Escherichia coli JUHL (code QQ)
[5] = Haemophilis influenzae DILL AMP R (code WW)
[6] = Micrococcus luteus ATCC 4698 (code PP)
[7] = Micrococcus luteus ATCC 9341 (code OO)
[8] = Mycobacterium smegmatis ATCC 114 (code UU)
[9] = Nocardia Asteroides ATCC9970 (code VV)
[10] = Staphylococcus aureus 1775 (code GG)
[11] = Staphylococcus aureus A5177 (code BB)
[12] = Staphylococcus aureus A-5278 (code CC)
[13] = Staphylococcus aureus ATCC 6538P (code AA)
[14] = Staphylococcus aureus CMX 553 (code FF)
[15] = Staphylococcus aureus CMX 642A (code DD)
[16] = Staphylococcus aureus NCTC10649M (code EE)
[17] = Staphylococcus epidermidis 3519 (code HH)
[18] = Streptococcus Pneumonia 5649 (code ZZA)
[19] = Streptococcus Pneumonia 5979 (code ZZ)
[20] = Streptococcus Pneumonia ATCC6303 (code XX)
[21] = Streptococcus Pneumonia GYR 1171 (code YY)
[22] = Streptococcus agalactiae CMX 508 (code KK)
[23] = Streptococcus bovis A-5169 (code JJ)
[24] = Streptococcus pyogenes 930 (code MM)
[25] = Streptococcus pyogenes EES61 (code LL)
[26] = Streptococcus pyogenes PIU 2548 (code NN)

SMILES	MIC [1] [µg/mL]	MIC [2] [µg/mL]	MIC [3] [µg/mL]	MIC [4] [µg/mL]	MIC (Escherichia coli SS (code RR)) [µg/mL]	MIC [5] [µg/mL]	MIC [6] [µg/mL]	MIC [7] [µg/mL]	MIC [8] [µg/mL]	MIC [9] [µg/mL]	MIC [10] [µg/mL]	MIC [11] [µg/mL]	MIC [12] [µg/mL]	MIC [13] [µg/mL]	MIC [14] [µg/mL]	MIC [15] [µg/mL]	MIC [16] [µg/mL]	MIC [17] [µg/mL]	MIC [18] [µg/mL]	MIC [19] [µg/mL]	other results
CC[C@H]1OC(=O)[C@H](C)C(=O)[C@H](C)[C@@H](O[C@@H]2O[C@H](C)C[C@H](N(C)C)[C@H]2O)[C@@](C)(OCCCc2ccccc2)C[C@@H](C)C(=O)[C@H](C)[C@H]2OC(=O)O[C@@]21C [Example 73, Compound of Formula (IX): L is CO, T is O, R is —CH2CH2CH2-Phenyl]	> 100	0.1	> 100	> 100	3.1	16	0.2	0.1	0.78	0.39	100	0.39	> 100	0.39	0.39	0.39	0.39	0.39	1	64	MIC [20]: 0.125 µg/mL; MIC [21]: 0.125 µg/mL; MIC [22]: 0.05 µg/mL; MIC [23]: 0.05 µg/mL; MIC [24]: 12.5 µg/mL; MIC [25]: 0.05 µg/mL; MIC [26]: 0.2 µg/mL
CC[C@H]1OC(=O)[C@H](C)C(=O)[C@H](C)[C@@H](O[C@@H]2O[C@H](C)C[C@H](N(C)C)[C@H]2O)[C@@](C)(OCC=Cc2ccc(Cl)cc2)C[C@@H](C)C(=O)[C@H](C)[C@H]2OC(=O)O[C@@]21C [Example 74, Compound of Formula (IX): L is CO, T is O, R is —CH2CH═CH-(4-chlorophenyl)]	> 100	0.1	> 100	> 100	3.3	4	0.2	0.05	0.39	0.39	> 100	0.2	> 100	0.2	0.2	0.2	0.2	0.2	0.5	32	MIC [20]: 0.125 µg/mL; MIC [21]: 0.125 µg/mL; MIC [22]: 0.05 µg/mL; MIC [23]: 0.05 µg/mL; MIC [24]: 50 µg/mL; MIC [25]: 0.05 µg/mL; MIC [26]: 0.39 µg/mL
CC[C@H]1OC(=O)[C@H](C)C(=O)[C@H](C)[C@@H](O[C@@H]2O[C@H](C)C[C@H](N(C)C)[C@H]2O)[C@@](C)(OCC=Cc2cnc3ccccc3c2)C[C@@H](C)C(=O)[C@H](C)[C@H]2OC(=O)O[C@@]21C [Example 75, Compound of Formula (IX): L is CO, T is O, R is —CH2CH═CH-(3-quinolyl)]	100	0.1	> 100	50	0.39	2	0.2	0.02	0.39	0.05	> 100	0.1	> 100	0.1	0.1	0.1	0.1	0.1	0.5	64	MIC [20]: 0.03 µg/mL; MIC [21]: 0.03 µg/mL; MIC [22]: 0.01 µg/mL; MIC [23]: < 0.005 µg/mL; MIC [24]: 3.1 µg/mL; MIC [25]: 0.02 µg/mL; MIC [26]: 0.1 µg/mL
C=CCO[C@@]1(C)C[C@@H](C)C(=O)[C@H](C)[C@H]2NC(=O)O[C@]2(C)[C@@H](CC)OC(=O)[C@H](C)C(=O)[C@H](C)[C@H]1O[C@@H]1O[C@H](C)C[C@H](N(C)C)[C@H]1O [Example 102, Formula (IX): L is CO, T is NH, R is —CH2CH═CH2]	> 100	0.78	> 100	> 100	1.56	64	0.78	0.2	25	1.56	> 100	1.56	> 100	0.78	1.56	1.56	0.78	1.56	0.25	> 64	MIC [20]: 0.5 µg/mL; MIC [21]: 0.25 µg/mL; MIC [22]: 0.2 µg/mL; MIC [23]: 0.2 µg/mL; MIC [24]: > 100 µg/mL; MIC [25]: 0.2 µg/mL; MIC [26]: 0.2 µg/mL
CC[C@H]1OC(=O)[C@H](C)C(=O)[C@H](C)[C@@H](O[C@@H]2O[C@H](C)C[C@H](N(C)C)[C@H]2O)[C@@](C)(OCC=Cc2ccccc2)C[C@@H](C)C(=O)[C@H](C)[C@H]2NC(=O)O[C@@]21C [Example 103, Compound of Formula (IX): L is CO, T is NH, R is —CH2CH═CH-Phenyl]	> 100	0.05	100	100	0.39	4	0.1	0.01	0.2	0.02	> 100	0.1	> 100	0.1	0.1	0.1	0.1	0.1	0.25	128	MIC [20]: 0.03 µg/mL; MIC [21]: 0.03 µg/mL; MIC [22]: 0.02 µg/mL; MIC [23]: 0.01 µg/mL; MIC [24]: 100 µg/mL; MIC [25]: 0.02 µg/mL; MIC [26]: 0.1 µg/mL
CC[C@H]1OC(=O)[C@H](C)C(=O)[C@H](C)[C@@H](O[C@@H]2O[C@H](C)C[C@H](N(C)C)[C@H]2O)[C@@](C)(OCC=Cc2cnc3ccccc3c2)C[C@@H](C)C(=O)[C@H](C)[C@H]2NC(=O)O[C@@]21C [Example 104, Compound of Formula (IX): L is CO, T is NH, R is —CH2CH═CH-(3-quinolyl)]	> 100	0.05	50	50	0.39	2	0.05	≤ 0.005	0.39	0.01	> 100	0.05	> 100	0.05	0.1	0.05	0.1	0.05	0.25	16	MIC [20]: 0.03 µg/mL; MIC [21]: 0.03 µg/mL; MIC [22]: 0.01 µg/mL; MIC [23]: 0.01 µg/mL; MIC [24]: 1.56 µg/mL; MIC [25]: ≤ 0.005 µg/mL; MIC [26]: 0.1 µg/mL
CC[C@H]1OC(=O)[C@H](C)C(=O)[C@H](C)[C@@H](O[C@@H]2O[C@H](C)C[C@H](N(C)C)[C@H]2O)[C@@](C)(OCCCc2cnc3ccccc3c2)C[C@@H](C)C2=NCCN3C(=O)O[C@@]1(C)[C@H]3[C@H]2C [Example 171, Compound of Formula (VII): A, B, D, and E are H, R is —CH2CH2CH2-(3-quinolyl)]	> 100	0.05	25	25	0.39	2	0.39	0.01	0.78	0.05	> 100	0.05	> 100	0.1	0.05	0.05	0.02	0.1	1	> 16	MIC [20]: 0.03 µg/mL; MIC [21]: 0.03 µg/mL; MIC [22]: 0.02 µg/mL; MIC [23]: ≤ 0.005 µg/mL; MIC [24]: 25 µg/mL; MIC [25]: ≤ 0.005 µg/mL; MIC [26]: 0.2 µg/mL
